Here are results for two molecules from article PMC5607265, “Design, synthesis and structure-activity relationship of 3,6-diaryl-7H-[1,2,4]triazolo[3,4-b][1,3,4]thiadiazines as novel tubulin inhibitors” (Scientific Reports, 2017).

For experiment [1], the target named is T1, highly purified tubulin from porcine brain (Sus scrofa, UniProt P02554).
T1 construct: highly purified tubulin from porcine brain; purchased Cytoskeleton BK011P; host or cells: porcine brain (tissue-purified)
As to the kind of experiment: Tubulin polymerization assay. Type of experiment: biochemical. Particulars: 37 °C; for effect on tubulin polymerization in words: CA-4 0.5-4 µM, 6i 0.1-8.0 µM, paclitaxel 5.0 µM. How it is done:
This assay uses highly purified tubulin from porcine brain.
The reaction was monitored at 37 °C.
(§1) Tubulin polymerization assay[33] was conducted with reagents as described in the kit manufacturer (Cytoskeleton, Cat.#BK011P) in a 96-well plate. In brief, tubulin was re-suspended in ice-cold G-PEM buffer (80 mM PIPES, 2 mM MgCl2, 0.5 mM EGTA, 1 mM GTP, 20% (v/v) glycerol) and added to wells on a 96-well plate containing the designated concentration of drugs or vehicle. Samples were mixed well, and tubulin assembly was monitored (emission wavelength: 450 ± 20 nm; excitation wavelength: 360 ± 20 nm) at 1 min intervals for 90 min at 37 °C in a SpectraMax 340PC spectrophotometer (Biotek Synergy HT, Winooskin, VT, USA). IC50 values were calculated from data at the 20 min time point using GraphPad Prism software. Experiments were repeated three times.
as §1, with “assay” for “assay[33]”, “450±20” for “450 ± 20”, “360±20” for “360 ± 20”, “timepoint” for “time point”

The subject of experiment [2] is tubulin network of SGC-7901 cells. As to the kind of experiment: Immunofluorescence of tubulin network. The format is cell-based, human. Particulars: 2-fold IC50 (0.022 µM), 12 h. The method, then:
CA-4 was employed as positive control in this experiment.
Figure 4 Effects of 6i on tubulin network of SGC-7901 cells by immunofluorenscence. […] The left and middle panels represent the tubulin assembly stained with DAPI and FITC and the right panel represents a merge of the corresponding left and middle panels.
The SGC-7901 cells were seeded at a density of 1 × 10^4 per well on a 24-well plate and grown for 24 h. […] Cells in the control group were treated with culture medium. The control and treated cells were fixed with 4% formaldehyde in PBS for 30 min at -20 °C, then washed twice with PBS and permeabilized with 0.1% (v/v) Triton X-100 in PBS for 5 min. Then, the cells were blocked with 3% bovine serum albumin (BSA) in PBS for 30 min. […] The cells were washed with PBS to remove unbound secondary antibody, nucleus was stained with 4,6-diamino-2-phenolindol dihydrochloride (DAPI) and then, immunofluorescence was detected using a fluorescence microscope (Olympus, Tokyo, Japan).
Immunostaining was carried out to detect microtubule associated tubulin protein after exposure to 6i and CA-4. […] The cells were washed with PBS to remove unbound secondary antibody, nucleus was stained with 4,6-diamino-2-phenolindol dihydrochloride (DAPI) and then, immunofluorescence was detected using a fluorescence microscope (Olympus, Tokyo, Japan).

For experiment [3], the system named is SGC-7901, A549 and HT-1080 cell lines. Description: MTT antiproliferative assay, span over the three cell lines. Type of experiment: cell-based, human. To be noted: MTT assay; for pIC50: Homo sapiens, range over SGC-7901, A549 and HT-1080, read-out: IC50 range against the three human cancer cell lines. The method, then: (§2) The SGC-7901, A549 and HT-1080 cell lines were purchased from the American Type Culture Collection (ATCC, Manassas, VA, USA). […] Briefly, approximately 3 × 10^4 cells were seeded in a 96-well plate. After 24 h of incubation at 37 °C, cells were exposed to compounds of differing concentrations for 24 h. After treatment, cells were washed with 1X PBS followed by addition of 100 µL of 0.05% MTT reagent to each well, followed by incubation for 4 h at 37 °C. After incubation, the supernatant from each well was carefully removed and the formazan crystals were dissolved in 100 µL of DMSO. The colour density was measured spectrophotometrically at 490 nm using a microplate reader (SpectraMax Plus384, Molecular Devices Corp., USA). The data were calculated and plotted as percent viability compared to control.
as §2
(In general: Tetrazolium assays rely on reduction of a dye to a coloured formazan, in cell work by metabolically active cells.)

pIC50: −log10 of the molar value. “Also recorded” adds a separate entry of the source.

T1 sequence (P02554 whole entry): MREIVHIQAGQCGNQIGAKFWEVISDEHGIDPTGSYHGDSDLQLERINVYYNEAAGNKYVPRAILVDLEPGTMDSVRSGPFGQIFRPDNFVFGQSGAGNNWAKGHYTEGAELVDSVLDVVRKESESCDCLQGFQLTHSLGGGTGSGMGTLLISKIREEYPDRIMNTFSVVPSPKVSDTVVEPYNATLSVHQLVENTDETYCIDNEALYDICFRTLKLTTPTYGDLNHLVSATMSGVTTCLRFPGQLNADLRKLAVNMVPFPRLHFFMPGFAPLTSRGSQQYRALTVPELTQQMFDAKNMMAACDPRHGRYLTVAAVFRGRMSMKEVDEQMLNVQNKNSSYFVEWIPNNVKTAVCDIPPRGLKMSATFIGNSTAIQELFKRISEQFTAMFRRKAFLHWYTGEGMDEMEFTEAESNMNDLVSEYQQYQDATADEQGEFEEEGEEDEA
T1 sequence (P02550 whole entry partner): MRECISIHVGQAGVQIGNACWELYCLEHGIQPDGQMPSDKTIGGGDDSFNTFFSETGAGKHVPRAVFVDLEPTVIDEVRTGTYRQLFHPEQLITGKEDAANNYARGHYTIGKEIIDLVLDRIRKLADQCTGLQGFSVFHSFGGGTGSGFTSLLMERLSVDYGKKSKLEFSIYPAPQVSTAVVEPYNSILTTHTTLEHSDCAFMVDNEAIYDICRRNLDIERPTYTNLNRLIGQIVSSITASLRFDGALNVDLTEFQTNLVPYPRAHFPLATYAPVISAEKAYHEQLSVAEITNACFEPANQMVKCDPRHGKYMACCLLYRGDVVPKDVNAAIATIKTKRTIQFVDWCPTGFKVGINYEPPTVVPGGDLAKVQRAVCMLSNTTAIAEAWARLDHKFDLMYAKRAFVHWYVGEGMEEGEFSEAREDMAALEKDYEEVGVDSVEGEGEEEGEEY

As for `COc1ccc(/C=C\c2cc(OC)c(OC)c(OC)c2)cc1O` [CA-4, Combretastatin A-4, reference compound], the “effect on tubulin polymerization in words” value in experiment [1] was “dose-dependent inhibition of tubulin polymerization”. In experiment [2], the “effect on microtubule/tubulin network” value was “the tubulin network showed a disruption”. Moreover, the pIC50 (as a rule, the IC50 on a negative log10 scale, so that one unit is a factor of ten) in experiment [3] was 7.89 to 8.05.

Consider `COc1cccc(-c2nnc3n2N=C(c2ccc(OC)c(N)c2)CS3)c1` [Compound 6i, 3-(3-Methoxyphenyl)-6-(3-amino-4-methoxyphenyl)-7H-[1,2,4]triazolo[3,4-b][1,3,4]thiadiazine], for which the “effect on tubulin polymerization in words” value in experiment [1] is on record as “dose-dependent inhibition of tubulin polymerization”. Besides, the pIC50 in experiment [1] (data at the 20 min time point, read-out: IC50 of tubulin polymerization inhibition) is 5.80; in experiment [3], 7.82 to 7.96. In addition, in experiment [2], the “effect on microtubule/tubulin network” value was “the tubulin network showed a disruption”. Besides, the “antiproliferative activity in words” value in experiment [3] (SGC-7901, A549 and HT-1080) was “nanomolar IC50 values against all tested cells; also recorded: IC50 values at the nanomolar level”.
